Measurements as given in PMC4287394 (Clinical cancer research : an official journal of the …, 2014).

Columns and labels:
[1] = test system: phospho-AKT (Ser473) in platelet-rich plasma; assay: Phospho-AKT in platelet-rich plasma; format: in vivo, human
[2] = test system: phospho-S6 (Ser235/236) in tumor tissue; assay: Phospho-S6 immunohistochemistry in paired tumor biopsies; format: in vivo, human
[3] = test system: phospho-AKT (Serine 473) in tumor tissue; assay: Phospho-AKT immunohistochemistry in paired tumor biopsies; format: in vivo, human
tumor 18F-FDG uptake = assay: Whole body 18F-FDG-PET; format: in vivo, human
advanced solid tumors = assay: Antitumor activity; format: in vivo, human
plasma insulin = details: 330mg, cycle 1 day 1, 1 hour from baseline
plasma glucose = details: 330mg, cycle 1 day 1, 1 hour from baseline
[4] = test system: purified recombinant human PI3K p110δ; details: read-out: IC50 p110δ; purified recombinant human PI3K isoforms; cited from earlier work
Class I PI3K = details: cited from earlier work
[5] = test system: purified recombinant human PI3K p110γ; details: read-out: IC50 p110γ; purified recombinant human PI3K isoforms; cited from earlier work
[6] = patient with cKIT exon 9 mutant gastrointestinal stromal tumor, 450mg once-daily
[7] = platinum-refractory ovarian cancer patient, 100mg once-daily 21/28
[8] = 9 patients with PI3K pathway alterations
[9] = patient with BRAF V600E-mutated metastatic melanoma, 330mg once-daily 21/28

CS(=O)(=O)N1CCN(Cc2cc3nc(-c4cccc5[nH]ncc45)nc(N4CCOCC4)c3s2)CC1 [pictilisib, 2-(1H-indazol-4-yl)-6-(4-methanesulfonyl-piperazin-1-ylmethyl)-4-morpholin-4-yl-t hieno[3,2-d]pyrimidine]
Inhibition of phospho-AKT level in platelet rich plasma ([1]; 1 to 3 hours post-dose at the RP2D (330mg)): up to 90% | Suppression of phosphorylated serine-473 AKT in platelet rich plasma ([1]; 3 hours post-dose at the MTD): > 90% | Phospho-AKT in platelet rich plasma, sustained effect, % of baseline ([1]; 24 hours post-dose at the RP2D (330mg)): 50% | Reduction in tumor phospho-S6 expression [2, 6]: 75% | Reduction in tumor phospho-S6 expression [2, 7]: 56% | Decrease in AKT phosphorylation in tumor biopsies ([3]; AUC >20uM.hr on day 15, 2 of 3 patients): 100% | Suppression of phosphorylated serine-473 AKT in tumor ([3]; doses associated with AUC >20uM.hr): > 90% | Patients with metabolic partial response by EORTC-PET criteria (tumor 18F-FDG uptake; 32 evaluable patients): 22% | Patients with metabolic partial response by EORTC-PET criteria (>25% reduction in mean SUVmax) (tumor 18F-FDG uptake; 32 evaluable patients): 7 of 32 and Seven of 32 | Overall median change in SUVmax (tumor 18F-FDG uptake; all evaluable patients): −13% | Range of change in SUVmax (tumor 18F-FDG uptake; all evaluable patients): −47 to 22% | Dose levels showing reduction from baseline of 18F-FDG-tracer uptake (tumor 18F-FDG uptake; in vivo): ≥ 45 mg | Reduction in SUVmax on 18F-FDG-PET (tumor 18F-FDG uptake; [6]): 47% | Reduction in mean SUVmax in subcapsular liver metastases (tumor 18F-FDG uptake; [7]): 30% | Patients with RECIST-based response (advanced solid tumors; [8]): none | Patients with response by GCIG-CA125 criteria (advanced solid tumors; [8]): 1 | Response by RECIST (advanced solid tumors; [9]): partial response | Time on pictilisib (advanced solid tumors; [9]): 9.5 months | Duration of stable disease (advanced solid tumors; [6]): 7.5 months | Duration of radiological stable disease (RECIST) (advanced solid tumors; [7]): 4 months | Serum CA125 after treatment (advanced solid tumors; platinum-refractory ovarian cancer patient, decrease from 1214 U/ml): 400 U/ml | Mean fold-change (post- over pre-treatment) in plasma insulin (plasma insulin): 3.58 (95%CI: 2.33-5.49) | Mean fold-change (post- over pre-treatment) in plasma glucose (plasma glucose): 1.18 (95%CI: 1.10-1.26) | IC50 [4]: 3 nM | Observed in vitro potency compared with BKM120 (Class I PI3K): higher | IC50 [5]: 75 nM
